“Also recorded” adds a separate entry of the source. Read-outs that look alike come from different tables or passages of the source. Each block holds one compound with its values, some of them ahead of it.
Legend:
[1] = system: cremaster skeletal muscle resistance arteries; experiment: Cremaster skeletal muscle resistance artery myogenic tone and phenylephrine response with CFTR inhibition in vitro; conditions: wild-type mouse arteries; in vitro 100 nmol/L for 30 minutes
Method: Isolation and functional assessment of resistance arteries: Mouse olfactory (a first branch of the anterior cerebral artery) and PCAs were carefully dissected, cannulated onto micropipettes, stretched to their in vivo lengths and pressurized to 45 mmHg, as previously described (3,6); mouse skeletal muscle resistance arteries were dissected from the cremaster muscle, cannulated and pressurized to 60 mmHg. All functional experiments were conducted in 3-morpholinopropanesulfonic acid (MOPS) buffered saline at 37° C. with no perfusion. […]
Myogenic responses were elicited by step-wise 20 mmHg increases in transmural pressure from 20 mmHg to 80 mmHg (olfactory arteries) or 100 mmHg (posterior cerebral arteries and cremaster skeletal muscle resistance arteries). At each pressure step, vessel diameter (diaactive) was measured once a steady state was reached (5 min). Vessels requiring treatment (e.g., CFTR(inh)-172) were incubated with the reagent in MOPS for 30 min and myogenic responses were then assessed in the presence of that reagent. Following completion of all diaactive measurements, MOPS buffer was replaced with a Ca^2+-free version and maximal passive diameter (diamax) was recorded at each pressure step. […]

[2] = system: olfactory cerebral artery; conditions: recent observations (6); cited from earlier work
[3] = system: posterior cerebral arteries; experiment: Phenylephrine responses of isolated posterior cerebral arteries; format: in vivo, mouse; conditions: Mus musculus, posterior cerebral arteries, log scale, read-out: log EC50 of phenylephrine response (converted)
Method: (§1) Isolation and functional assessment of resistance arteries: Mouse olfactory (a first branch of the anterior cerebral artery) and PCAs were carefully dissected, cannulated onto micropipettes, stretched to their in vivo lengths and pressurized to 45 mmHg, as previously described (3,6); mouse skeletal muscle resistance arteries were dissected from the cremaster muscle, cannulated and pressurized to 60 mmHg. All functional experiments were conducted in 3-morpholinopropanesulfonic acid (MOPS) buffered saline at 37° C. with no perfusion. Vasomotor responses to phenylephrine (5 μmol/L for posterior cerebral arteries, 10 μmol/L for cremaster skeletal muscle arteries) provided an assessment of vessel viability at the beginning and end of each experiment. Arteries failing to show ≥25% constriction to phenylephrine were excluded.
(§2) Myogenic tone was calculated as the percent constriction in relation to the maximal diameter at each respective transmural pressure: tone (% of diamax)=[(diamax−diaactive)/diamax]×100, where diaactive is the vessel diameter in MOPS containing Ca^2+ and diamax is the diameter in Ca^2+-free MOPS. Analyses of vasomotor responses to phenylephrine used the same calculation, only in this case, diaactive represents the vessel diameter at steady state following application of the given agent and diamax represents the maximal diameter measured under Ca^2+-free conditions.

[4] = system: olfactory cerebral arteries; experiment: Phenylephrine responses of isolated olfactory cerebral arteries; format: in vivo, mouse; conditions: Mus musculus, olfactory cerebral arteries, log scale, read-out: log EC50 of phenylephrine response (converted)
Method: as §1, §2

[5] = biological target: T1, TNF (Mus musculus, UniProt P06804); conditions: HF and SAH models, cited from earlier work
T1 sequence (P06804 1-235): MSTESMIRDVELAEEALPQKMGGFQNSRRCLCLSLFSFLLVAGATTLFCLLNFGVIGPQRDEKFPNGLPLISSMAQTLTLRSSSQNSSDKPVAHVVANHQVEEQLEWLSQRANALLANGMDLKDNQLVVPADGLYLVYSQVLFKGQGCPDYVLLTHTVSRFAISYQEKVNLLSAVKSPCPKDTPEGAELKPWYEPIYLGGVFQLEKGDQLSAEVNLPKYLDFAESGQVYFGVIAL

Compound: O=C(O)c1ccc(/C=C2\SC(=S)N(c3cccc(C(F)(F)F)c3)C2=O)cc1 [CFTR(inh)-172]
cremaster skeletal muscle resistance artery myogenic tone [1]: does not affect; also recorded: not altered
phenylephrine dose-response relationship in cremaster arteries [1]: not altered
olfactory cerebral artery myogenic tone [2]: augments

EC50 ([3]; CFTRΔF508 mice): 1000 nM
EC50 ([3]; HF mice untreated): 562 nM
EC50 ([3]; Sham (HF study)): 501 nM
EC50 ([3]; WT littermates): 1480 nM
EC50 ([4]; SAH untreated (C18 study)): 977 nM
EC50 ([4]; SAH untreated (lumacaftor study)): 1170 nM
EC50 ([4]; Sham (C18 SAH study)): 3020 nM
EC50 ([4]; Sham (lumacaftor SAH study)): 1620 nM
Compound: CNC[C@H](O)c1cccc(O)c1 [phenylephrine]

Compound: etanercept
HF- and SAH-mediated enhancement of cerebrovascular vasoconstriction (augmented myogenic tone) ([5]; earlier work (3,4,6)): eliminates
cerebral perfusion ([5]; earlier work (3,4,6)): normalizes
neuronal injury ([5]; earlier work (5,6)): reduces

Source: patent publication US20210346359A1, “Use of CFTR Modulators For Treating Cerebrovascular Conditions” (Qanatpharma AG, priority 2018, published 2021)
